ChEMBL document CHEMBL1157354, “Asymmetric synthesis of inhibitors of glycinamide ribonucleotide transformylase” (J Med Chem, 2008)

Legend:
[1] = target: Bifunctional purine biosynthesis protein ATIC (Homo sapiens, UniProt P31939); assay: Inhibition of human recombinant AICAR transformylase
CCRF-CEM [2] = assay: Cytotoxicity against human CCRF-CEM cells in absence of thymidine and hypoxanthine
CCRF-CEM [3] = assay: Cytotoxicity against human CCRF-CEM cells in presence of thymidine and absence of hypoxanthine
CCRF-CEM [4] = assay: Cytotoxicity against human CCRF-CEM cells in absence of thymidine and presence of hypoxanthine
CCRF-CEM [5] = assay: Cytotoxicity against folyl-poly-glutamate synthetase-deficient human CCRF-CEM cells in absence of thymidine and hypoxanthine
CCRF-CEM [6] = assay: Cytotoxicity against human CCRF-CEM cells expressing reduced folate carrier in absence of thymidine and hypoxanthine
[7] = target: T1, Trifunctional purine biosynthetic protein adenosine-3 (Homo sapiens, UniProt P22102); assay: Inhibition of human recombinant GAR transformylase
T1 sequence (P22102 whole entry): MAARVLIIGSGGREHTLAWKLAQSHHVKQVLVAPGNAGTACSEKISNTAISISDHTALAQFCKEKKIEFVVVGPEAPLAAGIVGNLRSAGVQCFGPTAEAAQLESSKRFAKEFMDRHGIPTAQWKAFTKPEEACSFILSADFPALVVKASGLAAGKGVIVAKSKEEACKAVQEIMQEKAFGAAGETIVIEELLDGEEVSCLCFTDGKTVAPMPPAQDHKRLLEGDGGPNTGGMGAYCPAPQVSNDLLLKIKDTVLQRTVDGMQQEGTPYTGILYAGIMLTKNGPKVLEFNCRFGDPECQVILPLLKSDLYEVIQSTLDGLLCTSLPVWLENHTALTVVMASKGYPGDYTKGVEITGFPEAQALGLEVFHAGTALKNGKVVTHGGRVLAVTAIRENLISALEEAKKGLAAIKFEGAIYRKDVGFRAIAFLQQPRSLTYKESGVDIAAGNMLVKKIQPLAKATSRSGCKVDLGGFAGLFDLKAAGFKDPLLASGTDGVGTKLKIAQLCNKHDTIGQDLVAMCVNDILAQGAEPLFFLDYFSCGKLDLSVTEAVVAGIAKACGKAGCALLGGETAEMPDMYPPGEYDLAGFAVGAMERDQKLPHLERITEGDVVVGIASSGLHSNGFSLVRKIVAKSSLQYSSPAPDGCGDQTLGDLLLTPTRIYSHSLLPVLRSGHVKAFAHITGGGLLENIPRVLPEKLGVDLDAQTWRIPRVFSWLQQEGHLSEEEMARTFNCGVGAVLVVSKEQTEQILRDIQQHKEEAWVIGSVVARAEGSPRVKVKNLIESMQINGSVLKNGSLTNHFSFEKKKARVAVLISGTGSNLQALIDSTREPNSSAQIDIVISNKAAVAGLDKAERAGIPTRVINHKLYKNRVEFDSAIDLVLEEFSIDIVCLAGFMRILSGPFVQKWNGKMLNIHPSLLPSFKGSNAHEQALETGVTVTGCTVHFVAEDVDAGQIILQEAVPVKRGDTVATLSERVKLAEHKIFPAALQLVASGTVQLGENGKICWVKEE

Sequence of Bifunctional purine biosynthesis protein ATIC (P31939 whole entry): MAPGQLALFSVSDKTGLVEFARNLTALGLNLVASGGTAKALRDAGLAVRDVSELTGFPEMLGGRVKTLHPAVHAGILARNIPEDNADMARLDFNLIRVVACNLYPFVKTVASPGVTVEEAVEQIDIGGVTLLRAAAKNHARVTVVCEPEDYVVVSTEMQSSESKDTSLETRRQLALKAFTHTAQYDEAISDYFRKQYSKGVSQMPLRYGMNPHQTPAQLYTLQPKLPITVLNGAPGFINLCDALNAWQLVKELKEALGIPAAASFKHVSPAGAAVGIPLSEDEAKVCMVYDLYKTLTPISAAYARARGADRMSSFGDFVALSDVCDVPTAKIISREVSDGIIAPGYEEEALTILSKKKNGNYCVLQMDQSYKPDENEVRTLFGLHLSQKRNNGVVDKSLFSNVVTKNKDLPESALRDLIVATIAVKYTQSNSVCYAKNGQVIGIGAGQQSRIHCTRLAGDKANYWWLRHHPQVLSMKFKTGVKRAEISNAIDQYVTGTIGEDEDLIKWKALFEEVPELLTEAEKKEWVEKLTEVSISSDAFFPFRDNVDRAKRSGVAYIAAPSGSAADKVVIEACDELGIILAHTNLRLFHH

| Ki [7] [nM] | SMILES | Ki [1] [µM] | IC50 (CCRF-CEM [2]) [nM] | IC50 (CCRF-CEM [3]) [nM] | IC50 (CCRF-CEM [4]) [µM] | IC50 (CCRF-CEM [5]) [µM] | IC50 (CCRF-CEM [6]) [nM] |
| --- | --- | --- | --- | --- | --- | --- | --- |
|  | Nc1nc(N)c(CCCC(C(=O)C(F)(F)F)c2ccc(C(=O)N[C@@H](CCC(=O)O)C(=O)O)cc2)c(=O)[nH]1 (some centres not stated) | > 100 | 16 | 17 | > 10 | > 10 |  |
|  | CS[C@@H](CCCc1c(N)nc(N)[nH]c1=O)c1ccc(C(=O)N[C@@H](CCC(=O)O)C(=O)O)cc1 | > 100 | 50 | 70 | > 10 | 5 | 60 |
|  | CO[C@H](CCCc1c(N)nc(N)[nH]c1=O)c1ccc(C(=O)N[C@@H](CCC(=O)O)C(=O)O)cc1 | > 100 | 500 | 700 | > 10 | 6 | 600 |
|  | Nc1nc(N)c(CCCC2(c3ccc(C(=O)N[C@@H](CCC(=O)O)C(=O)O)cc3)SCCCS2)c(=O)[nH]1 | 20 | > 100000 | > 100000 | > 10 |  |  |
| 1100 | Nc1nc(N)c(CCC[C@@H](O)c2ccc(C(=O)N[C@@H](CCC(=O)O)C(=O)O)cc2)c(=O)[nH]1 | > 100 | 2400 | 5700 | > 10 | > 10 |  |
|  | CS[C@H](CCCc1c(N)nc(N)[nH]c1=O)c1ccc(C(=O)N[C@@H](CCC(=O)O)C(=O)O)cc1 | > 100 | 80 | 80 | > 10 | 5.5 | 70 |
|  | Nc1nc(N)c(CCC[C@H](O)c2ccc(C(=O)N[C@@H](CCC(=O)O)C(=O)O)cc2)c(=O)[nH]1 | > 100 |  |  | > 10 | > 10 |  |
|  | CO[C@@H](CCCc1c(N)nc(N)[nH]c1=O)c1ccc(C(=O)N[C@@H](CCC(=O)O)C(=O)O)cc1 | > 100 | 700 | 900 | > 10 | > 10 | 900 |
|  | Nc1nc(N)c(CCCCc2ccc(C(=O)N[C@@H](CCC(=O)O)C(=O)O)cc2)c(=O)[nH]1 [DIDEAZAACYCLOTETRAHYDROFOLIC ACID] | 20 | 2700 | 3600 | > 10 | > 10 | > 100000 |
|  | Nc1nc2c(c(=O)[nH]1)C[C@@H](CCc1ccc(C(=O)N[C@@H](CCC(=O)O)C(=O)O)cc1)CN2 [LOMETREXOL] | > 100 |  |  | > 10 | > 10 | > 100000 |
